Assay results taken from patent US11040981B2, “Pyrrolotriazine compounds and methods of inhibiting TAM kinases” (Syros Pharmaceuticals, Inc., priority 2017, dated 2021).

Assays:
FLT3 = target: T1, FLT3 (Homo sapiens, UniProt P36888); assay: TR-FRET kinase activity assay, FLT3; format: biochemical; conditions: ATP at Km, 60 minutes
T1 sequence (P36888 27-993): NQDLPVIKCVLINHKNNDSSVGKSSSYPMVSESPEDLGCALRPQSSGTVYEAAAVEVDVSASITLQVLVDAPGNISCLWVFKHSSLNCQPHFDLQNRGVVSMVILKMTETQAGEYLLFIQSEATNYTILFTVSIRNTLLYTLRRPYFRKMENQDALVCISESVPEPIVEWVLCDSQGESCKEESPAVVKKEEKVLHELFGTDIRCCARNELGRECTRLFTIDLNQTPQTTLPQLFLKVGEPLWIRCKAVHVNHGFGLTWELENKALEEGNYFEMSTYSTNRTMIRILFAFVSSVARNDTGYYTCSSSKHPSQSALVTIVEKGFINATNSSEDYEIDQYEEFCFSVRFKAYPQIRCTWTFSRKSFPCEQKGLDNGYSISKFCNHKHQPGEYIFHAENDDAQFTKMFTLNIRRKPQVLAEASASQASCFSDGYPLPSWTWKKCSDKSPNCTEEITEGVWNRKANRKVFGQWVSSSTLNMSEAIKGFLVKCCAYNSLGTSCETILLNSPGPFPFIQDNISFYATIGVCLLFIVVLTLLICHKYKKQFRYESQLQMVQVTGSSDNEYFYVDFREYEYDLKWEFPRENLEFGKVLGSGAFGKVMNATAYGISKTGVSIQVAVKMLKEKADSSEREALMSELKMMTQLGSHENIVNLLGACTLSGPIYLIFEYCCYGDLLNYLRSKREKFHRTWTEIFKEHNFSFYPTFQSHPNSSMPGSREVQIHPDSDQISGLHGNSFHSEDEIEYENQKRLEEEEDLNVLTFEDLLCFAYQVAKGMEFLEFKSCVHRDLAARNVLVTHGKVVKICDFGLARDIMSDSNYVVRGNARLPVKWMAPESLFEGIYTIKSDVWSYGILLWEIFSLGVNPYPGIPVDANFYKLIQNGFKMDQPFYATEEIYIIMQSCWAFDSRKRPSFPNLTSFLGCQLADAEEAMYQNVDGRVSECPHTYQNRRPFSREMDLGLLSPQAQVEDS
Outline: (§1)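 IC50 reflects the drop in TR-FRET between Eu anti-phosphotyrosine antibody and labelled peptide after a 60-minute room-temperature reaction. Buffer was 50 mM HEPES pH 7.5 with 10 mM MgCl2, 1 mM EGTA, 0.01% Brij 35 and 1 mM DTT, with ATP at Km per enzyme and EDTA quench.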

MERTK = target: T2, MERTK (Homo sapiens, UniProt Q12866); assay: TR-FRET kinase activity assay, MERTK; format: biochemical; conditions: for IC50: TR-FRET activity assay, ATP at Km, 60 minutes, read-out: Mer IC50
T2 sequence (Q12866 21-999): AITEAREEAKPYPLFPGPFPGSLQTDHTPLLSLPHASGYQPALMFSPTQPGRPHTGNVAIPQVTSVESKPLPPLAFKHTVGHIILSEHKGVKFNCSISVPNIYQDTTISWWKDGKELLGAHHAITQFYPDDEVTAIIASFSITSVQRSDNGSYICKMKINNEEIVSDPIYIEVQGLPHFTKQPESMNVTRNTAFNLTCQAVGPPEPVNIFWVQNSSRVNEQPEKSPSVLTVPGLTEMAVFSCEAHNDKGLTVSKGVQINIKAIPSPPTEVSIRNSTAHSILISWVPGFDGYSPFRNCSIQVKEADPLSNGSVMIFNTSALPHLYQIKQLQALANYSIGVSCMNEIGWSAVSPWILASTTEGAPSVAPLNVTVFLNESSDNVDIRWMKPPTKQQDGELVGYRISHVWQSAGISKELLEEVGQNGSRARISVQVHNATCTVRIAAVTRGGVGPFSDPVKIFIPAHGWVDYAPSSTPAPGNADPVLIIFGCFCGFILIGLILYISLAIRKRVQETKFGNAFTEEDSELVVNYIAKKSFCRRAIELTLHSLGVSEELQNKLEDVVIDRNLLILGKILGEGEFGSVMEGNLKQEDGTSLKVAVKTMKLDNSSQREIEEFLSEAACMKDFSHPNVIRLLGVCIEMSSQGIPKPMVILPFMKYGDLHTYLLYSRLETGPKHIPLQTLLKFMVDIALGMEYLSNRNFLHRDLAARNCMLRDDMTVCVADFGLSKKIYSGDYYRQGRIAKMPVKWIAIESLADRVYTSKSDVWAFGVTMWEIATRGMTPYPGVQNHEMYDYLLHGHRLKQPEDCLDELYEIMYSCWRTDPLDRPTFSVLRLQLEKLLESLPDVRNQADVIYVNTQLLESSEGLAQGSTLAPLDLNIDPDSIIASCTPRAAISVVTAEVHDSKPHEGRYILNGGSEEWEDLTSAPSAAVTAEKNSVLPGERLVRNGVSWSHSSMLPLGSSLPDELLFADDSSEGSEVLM
Outline: as §1

[1] = ratio of Mer to FLT3: FLT3 IC50/Mer IC50
[2] = ratio calculated as FLT3 IC50/Mer IC50

In the case of `COC[C@H](C)Nc1ncc2c(N3CCCC3=O)cc([C@H]3CC[C@H](O)CC3)n2n1` [Compound 177], the IC50 (FLT3) is reported as 1000 to 10000 nM, the IC50 (MERTK) is reported as at most 100 nM and the “FLT3/Mer ratio (FLT3 IC50/Mer IC50)” value (MERTK; [1]) is reported as “+++ (“+++” represents a ratio of >100)”.

In the case of `COC[C@H](C)Nc1ncc2c(-c3cnn(C(C)(C)c4nnc(C)s4)c3)cc([C@H]3CC[C@H](O)CC3)n2n1` [Compound 625], the IC50 (FLT3) is reported as 100 to 1000 nM, the IC50 (MERTK) is reported as at most 100 nM and the “FLT3/Mer ratio (FLT3 IC50/Mer IC50)” value (MERTK; [2]) is reported as “+++ (“+++” represents a ratio of >100)”.

In the case of `COC[C@H](C)Nc1ncc2c(-c3cnn(C4COC4)c3)cc([C@H]3CC[C@](O)(C(C)C)CC3)n2n1` [Compound 617], the IC50 (FLT3) is reported as 100 to 1000 nM, the IC50 (MERTK) is reported as at most 100 nM and the “FLT3/Mer ratio (FLT3 IC50/Mer IC50)” value (MERTK; [2]) is reported as “+++ (“+++” represents a ratio of >100)”.

In the case of `COCCC(C)Nc1ncc2c(-c3ccc(CN4CCCC4)cc3)cc(C3CCC(O)CC3)n2n1` (stereo not drawn) [Compound 161], the IC50 (FLT3) is reported as at most 100 nM, the IC50 (MERTK) is reported as at most 100 nM and the “FLT3/Mer ratio (FLT3 IC50/Mer IC50)” value (MERTK; [1]) is reported as “++ (“++” represents a ratio of between 10 and 100)”.

`COC[C@H](C)Nc1ncc2c(-c3ccnc(N4CCC(C)(O)C4)c3)cc(C3CCC(O)CC3)n2n1` (stereo partly drawn) [Compound 633] was tested, and the IC50 (FLT3) was 100 to 1000 nM, the IC50 (MERTK) was at most 100 nM and the “FLT3/Mer ratio (FLT3 IC50/Mer IC50)” value (MERTK; [2]) was “+++ (“+++” represents a ratio of >100)”.

With `COC[C@H](C)Nc1ncc2c(-c3cnn(CC(=O)O)c3)cc([C@H]3CC[C@H](O)CC3)n2n1` [Compound 160] the IC50 (FLT3) was 1000 to 10000 nM, the IC50 (MERTK) was at most 100 nM and the “FLT3/Mer ratio (FLT3 IC50/Mer IC50)” value (MERTK; [1]) was “+++ (“+++” represents a ratio of >100)”.

With `C[C@@H](CC(F)(F)F)Nc1ncc2c(-c3cnn(C(C)(C)C(=O)C4COC4)c3)cc([C@H]3CC[C@](C)(O)CC3)n2n1` [Compound 610] the IC50 (FLT3) was at most 100 nM, the IC50 (MERTK) was at most 100 nM and the “FLT3/Mer ratio (FLT3 IC50/Mer IC50)” value (MERTK; [2]) was “++ (“++” represents a ratio of between 10 and 100)”.

For `COC[C@H](C)Nc1ncc2c(-c3cnn(C(C)(C)C(=O)N4CCCC(C)(O)C4)c3)cc([C@H]3CC[C@H](O)CC3)n2n1` (stereo partly drawn) [Compound 621], the IC50 (FLT3) was 100 to 1000 nM, the IC50 (MERTK) was at most 100 nM and the “FLT3/Mer ratio (FLT3 IC50/Mer IC50)” value (MERTK; [2]) was “+++ (“+++” represents a ratio of >100)”.

With `COCC(C)Nc1ncc2c(-c3ccc(C(C)N4CCCC4)cc3)cc(C3CCC(O)CC3)n2n1` (stereo not drawn) [Compound 166] the IC50 (FLT3) was at most 100 nM, the IC50 (MERTK) was at most 100 nM and the “FLT3/Mer ratio (FLT3 IC50/Mer IC50)” value (MERTK; [1]) was “++ (“++” represents a ratio of between 10 and 100)”.

`COC[C@H](C)Nc1ncc2c(-c3cnn(C(C)(C)C(=O)N4CC(C)(O)C4)c3)cc([C@H]3CC[C@H](O)CC3)n2n1` [Compound 622] was tested, and the IC50 (FLT3) was 1000 to 10000 nM, the IC50 (MERTK) was at most 100 nM and the “FLT3/Mer ratio (FLT3 IC50/Mer IC50)” value (MERTK; [2]) was “+++ (“+++” represents a ratio of >100)”.

For `COC[C@H](C)Nc1ncc2c(-c3cnn(C(C)(C)C(=O)N4CCCC4)c3)cc([C@H]3CC[C@H](O)CC3)n2n1` [Compound 612], the IC50 (FLT3) was 100 to 1000 nM, the IC50 (MERTK) was at most 100 nM and the “FLT3/Mer ratio (FLT3 IC50/Mer IC50)” value (MERTK; [2]) was “+++ (“+++” represents a ratio of >100)”.

In the case of `COC[C@H](C)Nc1ncc2c(-c3cnn(C(C)(C)c4nc(C)co4)c3)cc([C@H]3CC[C@H](O)CC3)n2n1` [Compound 623], the IC50 (FLT3) is reported as 1000 to 10000 nM, the IC50 (MERTK) is reported as at most 100 nM and the “FLT3/Mer ratio (FLT3 IC50/Mer IC50)” value (MERTK; [2]) is reported as “+++ (“+++” represents a ratio of >100)”.

`CC(Nc1ncc2c(-c3ccc(CN4CCN(C)CC4)cc3)cc([C@H]3CC[C@H](O)CC3)n2n1)C(F)F` (mixture of isomers) [Compound 148] was tested, and the IC50 (FLT3) was 100 to 1000 nM, the IC50 (MERTK) was at most 100 nM and the “FLT3/Mer ratio (FLT3 IC50/Mer IC50)” value (MERTK; [1]) was “+++ (“+++” represents a ratio of >100)”.

With `COC[C@H](C)Nc1ncc2c(-c3cnn(C4COC4)c3)cc([C@H]3CCc4[nH]ncc4C3)n2n1` [Compound 624] the IC50 (FLT3) was at most 100 nM, the IC50 (MERTK) was at most 100 nM and the “FLT3/Mer ratio (FLT3 IC50/Mer IC50)” value (MERTK; [2]) was “++ (“++” represents a ratio of between 10 and 100)”.

With `COC[C@H](C)Nc1ncc2c(-c3ccc(CN4CCN(c5nccc(C)n5)CC4)cc3)cc([C@H]3CC[C@H](O)CC3)n2n1` [Compound 154, (trans)-4-(2-(((S)-1-methoxypropan-2-yl)amino)-5-(4-((4-(4-methylpyrimidin-2-yl)piperazin-1-yl)methyl)phenyl)pyrrolo[2,1-f][1,2,4]triazin-7-yl)cyclohexanol] the IC50 (FLT3) was 100 to 1000 nM, the IC50 (MERTK) was at most 100 nM and the “FLT3/Mer ratio (FLT3 IC50/Mer IC50)” value (MERTK; [1]) was “+++ (“+++” represents a ratio of >100)”.
